How the values were obtained:
Experiment in all cases: relative viability (nuclei count vs DMSO), 5 days (fraction); higher = more cells survive
[1] = compound: CN(C)C/C=C/C(=O)Nc1cc2c(Nc3ccc(F)c(Cl)c3)ncnc2cc1O[C@H]1CCOC1 [Afatinib] + CC(C)C[C@H](NC(=O)[C@H](Cc1ccccc1)NC(=O)c1cnccn1)B(O)O [Bortezomib] (partner 0.002 µM)
Summary of the method: (§1)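 After 5 days of treatment, lung cancer cells in 1536-well plates were fixed and stained in a single step (final 0.05% Triton X-100, 1% formaldehyde, 1 ug/ml Hoechst) and their nuclei counted on 4× images. Treatment had been applied by pin tool the day after seeding as one drug alone or as a fixed anchor-drug dose with five library-drug doses (not always all listed) in √10 steps. Relative viability is the nuclei count of treated wells divided by that of vehicle wells, and values are medians of duplicate plates.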

[2] = compound: CN(C)C/C=C/C(=O)Nc1cc2c(Nc3ccc(F)c(Cl)c3)ncnc2cc1O[C@H]1CCOC1 [Afatinib] + CS(=O)(=O)N1CCN(Cc2cc3nc(-c4cccc5[nH]ncc45)nc(N4CCOCC4)c3s2)CC1 [Pictilisib] (partner 1 µM)
Summary of the method: as §1

[3] = compound: CN(C)C/C=C/C(=O)Nc1cc2c(Nc3ccc(F)c(Cl)c3)ncnc2cc1O[C@H]1CCOC1 [Afatinib] + O=C(c1cc(Cc2n[nH]c(=O)c3ccccc23)ccc1F)N1CCN(C(=O)C2CC2)CC1 [Olaparib] (partner 8 µM)
Summary of the method: as §1

[4] = compound: CN(C)C/C=C/C(=O)Nc1cc2c(Nc3ccc(F)c(Cl)c3)ncnc2cc1O[C@H]1CCOC1 [Afatinib] + CC(=O)Nc1cccc(-n2c(=O)n(C3CC3)c(=O)c3c(Nc4ccc(I)cc4F)n(C)c(=O)c(C)c32)c1 [Trametinib] (partner 0.02 µM)
Summary of the method: as §1

Cell Line | relative viability ([1]; first compound 0.005 µM) | relative viability ([1]; first compound 0.01581 µM) | relative viability ([1]; first compound 0.05 µM) | relative viability ([1]; first compound 0.1581 µM) | relative viability ([1]; first compound 0.5 µM) | relative viability ([2]; first compound 0.005 µM) | relative viability ([2]; first compound 0.01581 µM) | relative viability ([2]; first compound 0.05 µM) | relative viability ([2]; first compound 0.1581 µM) | relative viability ([2]; first compound 0.5 µM) | relative viability ([3]; first compound 0.005 µM) | relative viability ([3]; first compound 0.01581 µM) | relative viability ([3]; first compound 0.05 µM) | relative viability ([3]; first compound 0.1581 µM) | relative viability ([3]; first compound 0.5 µM) | relative viability ([4]; first compound 0.005 µM) | relative viability ([4]; first compound 0.01581 µM) | relative viability ([4]; first compound 0.05 µM) | relative viability ([4]; first compound 0.1581 µM) | relative viability ([4]; first compound 0.5 µM)
201T | 1.09 | 0.921 | 1.02 | 1.07 | 1.13 | 0.682 | 0.658 | 0.662 | 0.659 | 0.698 | 0.846 | 0.826 | 0.752 | 0.78 | 0.854 | 0.688 | 0.709 | 0.712 | 0.673 | 0.673
A549 |  |  |  |  |  | 0.499 | 0.416 | 0.478 | 0.389 | 0.442 | 0.321 | 0.451 | 0.359 | 0.304 | 0.375 |  |  |  |  | 
A-427 | 0.981 | 1.05 | 1 | 1.05 | 1.04 | 0.729 | 0.684 | 0.587 | 0.774 | 0.658 | 0.79 | 0.759 | 0.779 | 0.776 | 0.789 | 0.702 | 0.686 | 0.733 | 0.812 | 0.633
ABC-1 | 0.32 | 0.342 | 0.349 | 0.271 | 0.304 | 0.816 | 0.52 | 0.679 | 0.578 | 0.762 | 0.779 |  | 1.04 | 1.04 | 0.561 |  |  |  |  | 
BEN | 0.918 | 0.651 | 0.882 | 0.957 | 0.905 | 0.563 | 0.532 | 0.565 | 0.601 | 0.589 | 1.23 | 1.23 | 1.18 | 1.11 | 1.08 | 1.01 | 1.1 | 1.11 | 0.948 | 1.01
CAL-12T | 1.2 | 0.81 | 0.608 | 0.56 | 0.644 | 0.389 | 0.393 | 0.347 | 0.447 | 0.27 | 0.763 | 0.668 | 0.616 | 0.47 | 0.497 | 0.278 | 0.273 | 0.286 | 0.247 | 0.261
COR-L23 | 1.1 | 1.04 | 1.11 | 1.03 | 0.988 | 0.689 | 0.762 | 0.854 | 0.955 | 0.853 | 0.325 | 0.325 | 0.358 | 0.369 | 0.366 | 0.625 | 0.648 | 0.723 | 0.582 | 0.608
COR-L 105 | 0.3 | 0.31 | 0.334 | 0.262 | 0.362 | 0.359 | 0.355 | 0.302 | 0.252 | 0.35 | 0.737 | 0.483 | 0.422 | 0.331 | 0.34 | 0.38 | 0.315 | 0.379 | 0.34 | 0.352
Calu-6 | 1.15 | 0.97 | 1.13 | 1 | 1.08 | 0.999 | 0.941 | 1.01 | 0.964 | 0.989 | 0.565 | 0.565 | 0.607 | 0.573 | 0.545 |  |  |  |  | 

Source: the supplement of paper PMC10307832
